Results from patent US9963445B2, “Chemical compounds” (SYNGENTA PARTICIPATIONS AG, priority 2013, dated 2018).

What was measured:
Type in all cases: in vivo
[1] = test system: Abutilon theophrasti; experiment: Pre-emergence herbicidal activity, glasshouse pot test; conditions: pre-emergence spray, rate 1000 g/ha, evaluated after 13 days, scale 0-5
In short: (§1)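 Glasshouse conditions were 24/16 °C day/night with 14 h light and 65% humidity throughout. Soil was sprayed before emergence, one day after sowing, using an acetone/water (50:50) formulation with 0.5% Tween 20; injury was scored 0–5 after 13 days.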

[2] = test system: Alopecurus myosuroides; experiment: as above; conditions: pre-emergence spray, rate 1000 g/ha, evaluated after 13 days, scale 0-5
In short: as §1

[3] = test system: Amaranthus retroflexus; experiment: as above; conditions: pre-emergence spray, rate 1000 g/ha, evaluated after 13 days, scale 0-5
In short: as §1

[4] = test system: Echinochloa crus-galli; experiment: as above; conditions: pre-emergence spray, rate 1000 g/ha, evaluated after 13 days, scale 0-5
In short: as §1

[5] = test system: Setaria faberi; experiment: as above; conditions: pre-emergence spray, rate 1000 g/ha, evaluated after 13 days, scale 0-5
In short: as §1

[6] = test system: zea mays; experiment: as above; conditions: pre-emergence spray, rate 1000 g/ha, evaluated after 13 days, scale 0-5
In short: as §1

[7] = test system: Abutilon theophrasti; experiment: Post-emergence herbicidal activity, glasshouse pot test; set-up: key: 0 = no damage to plant, 5 = total damage to plant; conditions: Application post-emergence, rate 1000 g/ha, evaluated after 13 days
In short: (§2)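 Pot-grown seedlings, sown in standard soil, were sprayed 8 days after sowing and kept in a controlled glasshouse (24/16 °C, 14 h photoperiod, 65% humidity). Injury was assessed visually 13 days later on a scale where 5 means total damage.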

[8] = test system: Alopecurus myosuroides; experiment: as above; set-up: key: 0 = no damage to plant, 5 = total damage to plant; conditions: Application post-emergence, rate 1000 g/ha, evaluated after 13 days
In short: as §2

[9] = test system: Amaranthus retroflexus; experiment: as above; set-up: key: 0 = no damage to plant, 5 = total damage to plant; conditions: Application post-emergence, rate 1000 g/ha, evaluated after 13 days
In short: as §2

[10] = test system: Echinochloa crus-galli; experiment: as above; set-up: key: 0 = no damage to plant, 5 = total damage to plant; conditions: Application post-emergence, rate 1000 g/ha, evaluated after 13 days
In short: as §2

[11] = test system: Setaria faberi; experiment: as above; set-up: key: 0 = no damage to plant, 5 = total damage to plant; conditions: Application post-emergence, rate 1000 g/ha, evaluated after 13 days
In short: as §2

[12] = test system: zea mays; experiment: as above; set-up: key: 0 = no damage to plant, 5 = total damage to plant; conditions: Application post-emergence, rate 1000 g/ha, evaluated after 13 days
In short: as §2

| Compound | ABUTH damage score, application pre-emergence [1] | ALOMY damage score, application pre-emergence [2] | AMARE damage score, application pre-emergence [3] | ECHCG damage score, application pre-emergence [4] | SETFA damage score, application pre-emergence [5] | ZEAMX damage score, application pre-emergence [6] | ABUTH herbicidal damage score [7] | ALOMY herbicidal damage score [8] | AMARE herbicidal damage score [9] | ECHCG herbicidal damage score [10] | SETFA herbicidal damage score [11] | ZEAMX herbicidal damage score [12] |
| --- | --- | --- | --- | --- | --- | --- | --- | --- | --- | --- | --- | --- |
| COC1=C(C)C(O)N(c2cc(C(C)(C)F)c(-c3ccc(F)cc3)nn2)C1=O (stereo not drawn) [BI11] | 4 | 2 | 5 | 2 | 4 | 2 | 4 | 4 | 5 | 4 | 5 | 2 |
| CC#Cc1nnc(N2C(=O)C(OC)=C(C)C2O)cc1C(C)(C)F (stereo not drawn) [BI12] | 4 | 2 | 5 | 4 | 5 | 3 | 5 | 4 | 5 | 5 | 5 | 4 |
| C=C(OCC)c1nnc(N2C(=O)C(OC)=C(C)C2O)cc1C(C)(C)F (stereo not drawn) [BI13] | 5 | 4 | 5 | 5 | 5 | 2 | 5 | 5 | 5 | 5 | 5 | 2 |
| COC1=C(C)C(O)N(c2cc(C(C)(C)F)c(Cl)nn2)C1=O (stereo not drawn) [BI14] | 3 | 3 | 5 | 4 | 5 | 3 | 5 | 5 | 5 | 5 | 5 | 4 |
| COC1=C(C)C(O)N(c2cc(C(C)(C)F)c(C#N)nn2)C1=O (stereo not drawn) [BI15] | 5 | 4 | 5 | 5 | 5 | 2 | 5 | 4 | 5 | 5 | 5 | 2 |
| COC1=C(C)C(O)N(c2cc(C(C)(C)F)c(C)nn2)C1=O (stereo not drawn) [BI16] | 5 | 3 | 5 | 4 | 5 | 3 | 5 | 4 | 5 | 5 | 5 | 4 |
| COC1=C(C)C(O)N(c2cc(C(C)(F)F)c(-c3ccc(F)cc3)nn2)C1=O (stereo not drawn) [BI17] | 4 | 4 | 4 | 3 | 4 | 2 | 5 | 4 | 5 | 5 | 5 | 3 |
| CC#Cc1nnc(N2C(=O)C(OC)=C(C)C2O)cc1C(C)(F)F (stereo not drawn) [BI18] | 4 | 3 | 4 | 3 | 3 | 1 | 5 | 3 | 5 | 5 | 4 | 2 |
| C=C(OCC)c1nnc(N2C(=O)C(OC)=C(C)C2O)cc1C(C)(F)F (stereo not drawn) [BI19] | 5 | 3 | 5 | 5 | 3 | 2 | 5 | 4 | 5 | 5 | 4 | 3 |
| COC1=C(C)C(O)N(c2cc(C(C)(F)F)c(-c3ccc(C)c(F)c3)nn2)C1=O (stereo not drawn) [BI20] | 0 | 2 | 3 | 1 | 1 | 1 | 5 | 2 | 5 | 3 | 4 | 1 |
| COC1=C(C)C(O)N(c2cc(C(C)(F)F)c(-c3cccnc3)nn2)C1=O (stereo not drawn) [BI21] | 2 | 2 | 2 | 2 | 3 | 0 | 3 | 4 | 5 | 4 | 4 | 1 |
| COC1=C(C)C(O)N(c2cc(C(C)(F)F)c(Cl)nn2)C1=O (stereo not drawn) [BI22] | 4 | 4 | 5 | 5 | 4 | 3 | 5 | 5 | 5 | 5 | 5 | 3 |
| COC1=C(C)C(O)N(c2cc(C(C)(F)F)c(C#N)nn2)C1=O (stereo not drawn) [BI23] | 4 | 4 | 5 | 4 | 2 | 1 | 4 | 4 | 3 | 4 | 4 | 1 |
| COC1=C(C)C(O)N(c2cc(C(C)(F)F)c(C)nn2)C1=O (stereo not drawn) [BI24] | 5 | 4 | 5 | 4 | 4 | 3 | 5 | 4 | 5 | 5 | 5 | 3 |
| C#CC(C)(C)NC(=O)c1ccc(N2C(=O)C(OC)=C(C)C2O)nn1 (stereo not drawn) [BI27] | 4 | 2 | 5 | 4 | 4 | 1 | 5 | 4 | 5 | 5 | 5 | 4 |
| COC1=C(C)C(O)N(c2cc(C)c(Cl)nn2)C1=O (stereo not drawn) [BI29] | 0 | 3 | 3 | 3 | 2 | 1 | 1 | 2 | 5 | 3 | 4 | 0 |
